In patent US12492173B2, “Herbicidal substituted N-tetrazolyl aryl carboxamides” (Bayer Aktiengesellschaft, priority 2019, dated 2025):

Columns and labels:
Assay type in all cases: in vivo
Echinochloa crus-galli [1] = experiment: Pre-emergence herbicidal action, ECHCG; set-up: key to Herbicidal action against ECHCG: % activity: 100 = plants have died, 0 = like control plants; conditions: for herbicidal action ECHCG / herbicidal activity ECHCG: dosage 320 g/ha; for Herbicidal action against ECHCG: comparative experiment; for herbicidal activity ECHCG: scored visually after 3 weeks vs untreated controls (100% = plants have died)
Outline: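 Greenhouse pre-emergence test: formulated compound (WP or EC) applied in water to the soil covering sown seeds, 600–800 l/ha, 0.2% wetting agent. Scored visually in percent at 3 weeks versus untreated plants.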

Cyperus esculentus = experiment: Post-emergence herbicidal action, CYPES; set-up: key: % herbicidal action vs untreated; 100 = plants died, 0 = like control; conditions: for Herbicidal action against CYPES: comparative experiment
Protocol: [table] 2. Post-Emergence Herbicidal Action Against Harmful Plants Seeds of monocotyledonous and dicotyledonous weed and crop plants are laid out in sandy loam soil in wood-fiber pots, covered with soil and cultivated in a greenhouse under good growth conditions. 2 to 3 weeks after sowing, the test plants are treated at the one-leaf stage. The compounds of the invention, formulated in the form of wettable powders (WP) or as emulsion concentrates (EC), are then sprayed onto the green parts of the plants in the form of an aqueous suspension or emulsion at a water application rate equating to 600 to 800 l/ha, with addition of 0.2% wetting agent. After the test plants have been left to stand in the greenhouse under optimal growth conditions for about 3 weeks, the action of the preparations is assessed visually in comparison to untreated controls (herbicidal action in percent (%): 100% activity=the plants have died, 0% activity=like control plants). […] The tables below illustrate, in an exemplary manner, the post-emergence herbicidal action of the compounds according to the invention, the herbicidal activity being stated in percent. In the experiments that follow, herbicidal action of numerous inventive compounds and the known compounds that are structurally closest from D1 (WO 2012/028579 A1) and D2 (WO 2018/202535 A1) were compared under the above-specified conditions by the pre-emergence and post-emergence method. The example numbers given in the tables relate to the compounds disclosed in the respective documents. In addition to the compounds disclosed in D1 and D2, the following compounds V-1 to V-14 that are encompassed by D1 or D2 but are not compounds specified therein were used in the comparative experiments: • V-1: 2-(methylsulfanyl)-3-(methylsulfinyl)-N-(1-methyl-1H-tetrazol-5-yl)-4-(trifluoromethyl)benzamide • V-2: 2-(methylsulfanyl)-3-(methylsulfonyl)-N-(1-methyl-1H-tetrazol-5-yl)-4-(trifluoromethyl)benzamide • V-3: 2,3-bis(ethylsulfanyl)-N-(1-methyl-1H-tetrazol-5-yl)-4-(trifluoromethyl)benzamide • V-4: 2-chloro-3-(ethylsulfanyl)-N-(1-methyl-1H-tetrazol-5-yl)-4-(trifluoromethyl)benzamide • V-5: 2-chloro-4-iodo-3-(methylsulfanyl)-N-(1-methyl-1H-tetrazol-5-yl)benzamide • V-6: 2-chloro-4-iodo-3-(methylsulfinyl)-N-(1-methyl-1H-tetrazol-5-yl)benzamide • V-7: 2-chloro-4-iodo-3-(methylsulfonyl)-N-(1-methyl-1H-tetrazol-5-yl)benzamide • V-8: 2-bromo-3-(methylsulfanyl)-N-(1-methyl-1H-tetrazol-5-yl)-4-(trifluoromethyl)benzamide • V-9: 2-bromo-3-(methylsulfinyl)-N-(1-methyl-1H-tetrazol-5-yl)-4-(trifluoromethyl)benzamide • V-10: 2-bromo-3-(methylsulfonyl)-N-(1-methyl-1H-tetrazol-5-yl)-4-(trifluoromethyl)benzamide • V-11: 2-bromo-3-(ethylsulfanyl)-N-(1-methyl-1H-tetrazol-5-yl)-4-(trifluoromethyl)benzamide • V-12: 2-bromo-3-(ethylsulfinyl)-N-(1-methyl-1H-tetrazol-5-yl)-4-(trifluoromethyl)benzamide • V-13: 2-bromo-3-(ethylsulfonyl)-N-(1-methyl-1-1H-tetrazol-5-yl)-4-(trifluoromethyl)benzamide • V-14: 2-cyclopropyl-3-(ethylsulfanyl)-N-(1-methyl-1H-tetrazol-5-yl)-4-(trifluoromethyl)benzamide Herbicidal Pre-Emergence Action: […]

Echinochloa crus-galli [2] = experiment: Post-emergence herbicidal action, ECHCG; set-up: key: % herbicidal action vs untreated; 100 = plants died, 0 = like control
Outline: (§1)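 Foliar application at the one-leaf stage of greenhouse-grown plants in sandy loam; compound applied as WP or EC in 600–800 l/ha water containing 0.2% wetting agent. Scores are visual percentages (0% like control, 100% plants died) taken after roughly 3 weeks.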

Avena fatua = experiment: Post-emergence herbicidal action, AVEFA; set-up: key: % herbicidal action vs untreated; 100 = plants died, 0 = like control
Outline: as §1

[3] = comparative experiment, post-emergence, 20 g of a.i./ha

Row | SMILES | herbicidal action ECHCG (Echinochloa crus-galli [1]) [%] | herbicidal action ECHCG (Echinochloa crus-galli [2]; Dosage 80 g/ha) | herbicidal action AVEFA (Avena fatua; Dosage 80 g/ha) | also measured
1 | Cc1ccc(C(=O)Nc2nnnn2C)c(Cl)c1C[S+](C)[O-] (racemic) [Example 1-288] | 90 | 90 | – | herbicidal action CYPES (Cyperus esculentus; Dosage 80 g/ha): 90
2 | CCS(=O)(=O)Cc1c(C(F)(F)F)ccc(C(=O)Nc2nnnn2C)c1C [Example 1-88] | 100 | 90 | 80 | –
3 | Cc1c(C(=O)Nc2nnnn2C)ccc(C(F)F)c1C[S+](C)[O-] (stereo not shown) [Example 1-108] | 100 | 80 | – | –
4 | COc1c(C(=O)Nc2nnnn2C)ccc(C(F)(F)F)c1C[S+](C)[O-] (stereo not shown) [Example 1-135] | 100 | 90 | – | –
5 | CSCc1c(C)ccc(C(=O)Nc2nnnn2C)c1Cl [Example 1-287] | 80 | 100 | 80 | –
6 | CSCc1c(C(F)F)ccc(C(=O)Nc2nnnn2C)c1Cl [Example 1-320] | – | 100 | 100 | Herbicidal action against ECHCG (Echinochloa crus-galli [1]; 20 g of a.i./ha): 100; herbicidal activity ECHCG (Echinochloa crus-galli [1]): 100%; herbicidal action CYPES (Cyperus esculentus; Dosage 80 g/ha): 80; Herbicidal action against ECHCG (Echinochloa crus-galli [2]; comparative experiment, post-emergence, 5 g of a.i./ha): 100
7 | CSCc1c(Cl)ccc(C(=O)Nc2nnnn2C)c1Cl [Example 1-559] | 100 | – | – | herbicidal action AVEFA (Avena fatua; post-emergence, dosage 80 g/ha): 100%; herbicidal action CYPES (Cyperus esculentus; post-emergence, dosage 80 g/ha): 90%; herbicidal action ECHCG (Echinochloa crus-galli [2]; post-emergence, dosage 80 g/ha): 100%
8 | COc1c(C(=O)Nc2nnnn2C)ccc(Cl)c1CSC [Example 1-570] | 90 | – | – | Herbicidal action against CYPES (Cyperus esculentus; post-emergence, 5 g of a.i./ha): 60; Herbicidal action against ECHCG (Echinochloa crus-galli [2]; post-emergence, dosage 80 g/ha): 100
9 | CCSCc1c(C(F)(F)F)ccc(C(=O)Nc2nnnn2CC)c1C [Example 2-86] | 100 | – | – | herbicidal action AVEFA (Avena fatua; post-emergence, dosage 80 g/ha): 100%; herbicidal action CYPES (Cyperus esculentus; post-emergence, dosage 80 g/ha): 80%; herbicidal action ECHCG (Echinochloa crus-galli [2]; post-emergence, dosage 80 g/ha): 90%
10 | CCn1nnnc1NC(=O)c1ccc(C(F)(F)F)c(CS(=O)(=O)CC)c1C [Example 2-88] | 100 | 90 | 90 | –
11 | CCn1nnnc1NC(=O)c1ccc(C(F)F)c(C[S+](C)[O-])c1C (stereo not shown) [Example 2-108] | 90 | 100 | – | –
12 | CCn1nnnc1NC(=O)c1ccc(C(F)F)c(C[S+](C)[O-])c1SC (stereo not shown) [Example 2-171] | – | 90 | – | herbicidal activity ECHCG (Echinochloa crus-galli [1]): 100%
13 | CCn1nnnc1NC(=O)c1ccc(S(C)(=O)=O)c(CS(C)(=O)=O)c1Cl [Example 2-280] | 100 | – | – | Herbicidal action against AVEFA (Avena fatua; post-emergence, dosage 80 g/ha): 90; Herbicidal action against ECHCG (Echinochloa crus-galli [2]; post-emergence, dosage 80 g/ha): 90
14 | CCn1nnnc1NC(=O)c1ccc(C(F)(F)F)c(CS(=O)(=O)CC)c1Cl [Example 2-301] | 100 | 90 | 90 | –
15 | CCn1nnnc1NC(=O)c1ccc(Cl)c(CSC)c1Cl [Example 2-559] | 100 | 100 | 100 | –
16 | CCCn1nnnc1NC(=O)c1ccc(S(C)(=O)=O)c(CSC)c1C [Example 3-37] | – | 100 | 80 | –
17 | CCCn1nnnc1NC(=O)c1ccc(S(C)(=O)=O)c(CS(C)(=O)=O)c1C [Example 3-39] | 90 | 90 | 80 | –
18 | CCCn1nnnc1NC(=O)c1ccc(C(F)(F)F)c(CSCC)c1C [Example 3-86] | 100 | 90 | 80 | –
19 | CCCn1nnnc1NC(=O)c1ccc(C(F)(F)F)c(C[S+](C)[O-])c1OC (stereo not shown) [Example 3-135] | 100 | 100 | 100 | –
20 | CCCn1nnnc1NC(=O)c1ccc(C(F)(F)F)c(CSC)c1SC [Example 3-161] | 100 | 90 | 90 | –
21 | CCCn1nnnc1NC(=O)c1ccc(C(F)F)c(CSC)c1SC [Example 3-170] | – | 90 | 80 | herbicidal activity ECHCG (Echinochloa crus-galli [1]): 100%
22 | CCCn1nnnc1NC(=O)c1ccc(C(F)(F)F)c(CS(=O)(=O)CC)c1Cl [Example 3-301] | 100 | 90 | 90 | –
23 | CCCn1nnnc1NC(=O)c1ccc(C(F)(F)F)c(CSCC(F)(F)F)c1Cl [Example 3-311] | 80 | 100 | 100 | –
24 | CCCn1nnnc1NC(=O)c1ccc(C(F)(F)F)c(CS(C)(=O)=O)c1Br [Example 3-382] | 90 | 90 | – | herbicidal action CYPES (Cyperus esculentus; Dosage 80 g/ha): 80
25 | CCS(=O)(=O)c1c(C(F)(F)F)ccc(C(=O)Nc2nnnn2C)c1Br [Example V-13, 2-bromo-3-(ethylsulfonyl)-N-(1-methyl-1-1H-tetrazol-5-yl)-4-(trifluoromethyl)benzamide, reference compound] | – | – | – | Herbicidal action against ECHCG (Echinochloa crus-galli [1]; 80 g of a.i./ha): 0; Herbicidal action against AVEFA (Avena fatua; [3]): 0; Herbicidal action against CYPES (Cyperus esculentus; post-emergence, 20 g of a.i./ha): 0; Herbicidal action against ECHCG (Echinochloa crus-galli [2]; [3]): 0
